This is an account of results in patent publication EP4745135A1 (Gluetacs Therapeutics (Shanghai) Co., Ltd., priority 2023, dated 2025).

For one test, the target named is T1, CK1α (Homo sapiens, UniProt P48729+Q96SW2).
T1 construct: effects of the compounds of the present disclosure on the expression of target proteins in cells; endogenous in cells; host or cells: human PBMCs (Milecell Biotechnologies)
The experiment in a line: Western blot, degradation of substrate protein in hPBMCs. Type of test: cell-based.

In another test the target is T2, IKZF1 (Homo sapiens, UniProt Q13422+Q96SW2).
T2 construct: effects of the compounds of the present disclosure on the expression of target proteins in cells; endogenous in cells; host or cells: human PBMCs (Milecell Biotechnologies)
T2 sequence (Q13422 whole entry): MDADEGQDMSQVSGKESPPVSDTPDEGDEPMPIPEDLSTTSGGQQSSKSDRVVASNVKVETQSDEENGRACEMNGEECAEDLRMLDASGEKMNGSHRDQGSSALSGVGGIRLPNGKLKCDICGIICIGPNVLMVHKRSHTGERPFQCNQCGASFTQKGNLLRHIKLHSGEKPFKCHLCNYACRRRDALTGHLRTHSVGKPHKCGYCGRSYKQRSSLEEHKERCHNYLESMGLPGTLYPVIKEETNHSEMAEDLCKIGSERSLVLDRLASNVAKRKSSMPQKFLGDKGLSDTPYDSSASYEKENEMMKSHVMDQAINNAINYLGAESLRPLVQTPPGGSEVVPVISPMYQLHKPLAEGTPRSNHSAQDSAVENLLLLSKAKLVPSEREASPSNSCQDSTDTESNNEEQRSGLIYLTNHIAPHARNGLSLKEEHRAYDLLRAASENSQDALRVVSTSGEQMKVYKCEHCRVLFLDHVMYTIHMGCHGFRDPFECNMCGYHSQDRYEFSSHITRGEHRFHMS
T2 sequence (Q96SW2 whole entry): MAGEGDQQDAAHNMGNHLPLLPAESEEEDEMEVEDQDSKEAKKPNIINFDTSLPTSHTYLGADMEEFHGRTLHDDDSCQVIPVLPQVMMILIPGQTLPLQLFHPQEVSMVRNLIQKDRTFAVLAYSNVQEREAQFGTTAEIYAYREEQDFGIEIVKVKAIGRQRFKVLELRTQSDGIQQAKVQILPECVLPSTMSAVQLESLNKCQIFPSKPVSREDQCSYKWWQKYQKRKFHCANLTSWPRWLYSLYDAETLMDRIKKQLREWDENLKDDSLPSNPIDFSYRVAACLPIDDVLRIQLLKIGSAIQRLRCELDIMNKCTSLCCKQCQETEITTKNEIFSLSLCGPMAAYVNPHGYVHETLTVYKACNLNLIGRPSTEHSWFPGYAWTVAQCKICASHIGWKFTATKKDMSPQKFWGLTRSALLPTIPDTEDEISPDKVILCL
T2 sequence (Q16531 whole entry partner): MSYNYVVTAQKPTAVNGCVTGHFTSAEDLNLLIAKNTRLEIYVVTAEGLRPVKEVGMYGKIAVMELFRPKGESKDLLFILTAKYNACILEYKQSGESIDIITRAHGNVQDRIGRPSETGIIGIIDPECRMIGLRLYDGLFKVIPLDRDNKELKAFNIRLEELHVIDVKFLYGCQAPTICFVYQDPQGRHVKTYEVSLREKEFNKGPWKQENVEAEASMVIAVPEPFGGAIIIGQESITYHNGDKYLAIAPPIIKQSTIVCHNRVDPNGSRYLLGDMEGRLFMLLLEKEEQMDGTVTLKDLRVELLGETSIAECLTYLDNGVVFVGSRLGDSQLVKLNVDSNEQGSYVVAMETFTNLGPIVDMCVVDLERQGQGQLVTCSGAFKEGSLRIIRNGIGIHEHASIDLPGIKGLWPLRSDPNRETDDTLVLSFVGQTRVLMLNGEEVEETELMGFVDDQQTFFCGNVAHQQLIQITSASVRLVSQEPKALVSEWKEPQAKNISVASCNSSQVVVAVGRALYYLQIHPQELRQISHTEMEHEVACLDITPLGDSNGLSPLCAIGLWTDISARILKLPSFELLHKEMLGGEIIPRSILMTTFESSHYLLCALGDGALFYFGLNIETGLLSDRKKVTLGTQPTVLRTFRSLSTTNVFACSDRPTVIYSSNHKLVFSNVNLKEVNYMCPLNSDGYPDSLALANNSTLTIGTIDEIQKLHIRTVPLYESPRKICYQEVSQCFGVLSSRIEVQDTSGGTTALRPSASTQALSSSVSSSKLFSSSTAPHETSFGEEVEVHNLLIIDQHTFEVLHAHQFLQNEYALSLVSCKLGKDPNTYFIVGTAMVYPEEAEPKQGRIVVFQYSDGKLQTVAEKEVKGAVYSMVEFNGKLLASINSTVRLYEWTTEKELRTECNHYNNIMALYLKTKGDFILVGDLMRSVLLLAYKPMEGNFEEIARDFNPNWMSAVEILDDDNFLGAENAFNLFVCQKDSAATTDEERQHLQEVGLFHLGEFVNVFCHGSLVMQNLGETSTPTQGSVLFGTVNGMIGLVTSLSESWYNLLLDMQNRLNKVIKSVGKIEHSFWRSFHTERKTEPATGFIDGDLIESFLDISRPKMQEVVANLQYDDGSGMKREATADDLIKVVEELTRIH
The test is described as above. The class given is cell-based.

The target in the next test is T3, IKZF2 (Homo sapiens, UniProt Q96SW2+Q9UKS7).
T3 construct: effects of the compounds of the present disclosure on the expression of target proteins in cells; endogenous in cells; host or cells: human PBMCs (Milecell Biotechnologies)
T3 sequence (Q9UKS7 whole entry): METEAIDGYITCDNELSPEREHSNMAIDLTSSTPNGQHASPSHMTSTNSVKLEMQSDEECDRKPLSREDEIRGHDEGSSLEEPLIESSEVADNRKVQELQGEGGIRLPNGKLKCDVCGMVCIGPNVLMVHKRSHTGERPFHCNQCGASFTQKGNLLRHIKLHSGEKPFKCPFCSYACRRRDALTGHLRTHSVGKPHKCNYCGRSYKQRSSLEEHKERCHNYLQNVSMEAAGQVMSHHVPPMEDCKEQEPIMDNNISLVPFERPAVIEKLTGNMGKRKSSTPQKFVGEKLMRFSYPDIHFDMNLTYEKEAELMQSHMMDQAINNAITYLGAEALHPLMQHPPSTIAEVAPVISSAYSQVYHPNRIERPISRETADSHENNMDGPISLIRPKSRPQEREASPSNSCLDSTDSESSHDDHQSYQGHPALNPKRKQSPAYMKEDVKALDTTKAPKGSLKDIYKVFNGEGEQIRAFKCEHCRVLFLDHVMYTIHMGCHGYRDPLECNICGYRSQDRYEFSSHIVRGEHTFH
T3 sequence (Q96SW2 whole entry): as the sequence (Q96SW2 whole entry) above
T3 sequence (Q16531 whole entry partner): as the sequence (Q16531 whole entry partner) above
The description is as above. The class given is cell-based.

Another test addresses T4, IKZF3 (Homo sapiens, UniProt Q96SW2+Q9UKT9).
T4 construct: effects of the compounds of the present disclosure on the expression of target proteins in cells; endogenous in cells; host or cells: human PBMCs (Milecell Biotechnologies)
Described as above. The class given is cell-based.

The next test addresses T5, WEE1 (Homo sapiens, UniProt P30291+Q96SW2).
T5 construct: effects of the compounds of the present disclosure on the expression of target proteins in cells; endogenous in cells; host or cells: human PBMCs (Milecell Biotechnologies)
Described as above. Type of test: cell-based.

A further test deals with GSPT1. The description is as above. The class given is cell-based, Human.
In test [1] the target is T6, human Cereblon WT GST-tagged protein (Homo sapiens, UniProt Q96SW2).
T6 construct: purchased CISBIO 64BDCRBNPEH
T6 sequence (Q96SW2 whole entry): as the sequence (Q96SW2 whole entry) above
The experiment in a line: CRBN-binding affinity, HTRF (CEREBLON BINDING kit). Particulars: for inhibition at 0.5 µM: read-out: Inhibition Rate at 0.5 µM (%); for inhibition at 2 µM: read-out: Inhibition Rate at 2 µM (%). On the technique in general: TR-FRET usually uses a lanthanide donor and a delayed reading to cut background.

The mark [2] stands for this setting: Western blot, 24 hours of compound treatment, compounds tested at 50 nM and 500 nM (concentration for the table not stated).
[3] abbreviates: 24 hours treatment, compounds at 50 nM and 500 nM (concentration behind the class not stated).

T1 sequence (P48729 whole entry): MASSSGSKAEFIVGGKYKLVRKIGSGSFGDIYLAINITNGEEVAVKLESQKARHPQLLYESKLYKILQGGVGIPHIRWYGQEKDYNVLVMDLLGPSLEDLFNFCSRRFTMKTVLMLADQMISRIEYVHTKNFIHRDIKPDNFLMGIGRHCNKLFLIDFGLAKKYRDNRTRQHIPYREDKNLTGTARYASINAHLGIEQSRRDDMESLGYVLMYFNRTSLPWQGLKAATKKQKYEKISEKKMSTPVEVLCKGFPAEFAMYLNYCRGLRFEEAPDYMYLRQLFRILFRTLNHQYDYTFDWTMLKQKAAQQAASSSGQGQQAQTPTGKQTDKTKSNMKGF
T1 sequence (Q96SW2 whole entry): as the sequence (Q96SW2 whole entry) above
T1 sequence (Q16531 whole entry partner): as the sequence (Q16531 whole entry partner) above
T5 sequence (P30291 whole entry): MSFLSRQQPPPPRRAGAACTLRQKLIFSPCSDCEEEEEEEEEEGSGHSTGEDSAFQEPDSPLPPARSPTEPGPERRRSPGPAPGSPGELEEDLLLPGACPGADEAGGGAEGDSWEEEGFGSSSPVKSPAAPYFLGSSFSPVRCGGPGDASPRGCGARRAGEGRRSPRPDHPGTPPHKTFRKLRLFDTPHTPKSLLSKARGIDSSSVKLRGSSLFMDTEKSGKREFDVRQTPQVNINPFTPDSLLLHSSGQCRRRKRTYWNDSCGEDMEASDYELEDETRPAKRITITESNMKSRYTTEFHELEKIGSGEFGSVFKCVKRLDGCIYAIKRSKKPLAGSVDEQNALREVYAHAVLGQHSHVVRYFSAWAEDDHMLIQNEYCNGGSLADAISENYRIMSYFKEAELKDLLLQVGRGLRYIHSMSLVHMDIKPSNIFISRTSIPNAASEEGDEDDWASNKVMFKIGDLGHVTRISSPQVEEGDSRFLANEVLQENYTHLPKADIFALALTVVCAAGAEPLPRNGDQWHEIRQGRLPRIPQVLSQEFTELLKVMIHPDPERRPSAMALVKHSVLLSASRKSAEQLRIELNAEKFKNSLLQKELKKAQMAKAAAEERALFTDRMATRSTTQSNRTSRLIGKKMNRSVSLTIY
T5 sequence (Q96SW2 whole entry): as the sequence (Q96SW2 whole entry) above
T5 sequence (Q16531 whole entry partner): as the sequence (Q16531 whole entry partner) above
T4 sequence (Q9UKT9 whole entry): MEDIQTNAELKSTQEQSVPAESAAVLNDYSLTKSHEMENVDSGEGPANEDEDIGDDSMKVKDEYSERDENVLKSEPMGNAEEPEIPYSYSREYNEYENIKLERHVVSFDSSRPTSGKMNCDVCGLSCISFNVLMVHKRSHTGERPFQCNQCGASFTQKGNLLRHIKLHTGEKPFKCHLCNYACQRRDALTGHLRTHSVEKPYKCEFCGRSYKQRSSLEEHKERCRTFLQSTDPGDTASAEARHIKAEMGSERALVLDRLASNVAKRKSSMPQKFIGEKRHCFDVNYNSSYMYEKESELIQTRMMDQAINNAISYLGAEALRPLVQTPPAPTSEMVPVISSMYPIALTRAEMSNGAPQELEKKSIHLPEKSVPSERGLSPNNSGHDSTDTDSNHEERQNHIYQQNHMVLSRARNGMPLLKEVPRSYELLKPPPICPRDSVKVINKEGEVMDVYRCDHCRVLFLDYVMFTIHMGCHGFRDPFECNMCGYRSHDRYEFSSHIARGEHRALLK
T4 sequence (Q96SW2 whole entry): as the sequence (Q96SW2 whole entry) above
T4 sequence (Q16531 whole entry partner): as the sequence (Q16531 whole entry partner) above

For the compound `Cc1cc(N2CCN(Cc3cccc4c3CN(C3CCC(=O)NC3=O)C4=S)CC2)cc(C)n1` (stereo not shown) [GT-08806, 3-(4-((4-(2,6-dimethylpyridin-4-yl)piperazin-1-yl)methyl)-1-thioxoisoindolin-2-yl)piperidine-2,6-dione], the “CK1α substrate protein remaining %” value on CK1α (setting [2]) is given as “B (80%< substrate protein remaining %≤ 100%)”. On IKZF1 (setting [2]), the “IKZF 1 substrate protein remaining %” value was “B (80%< substrate protein remaining %≤ 100%)”. Further, the “IKZF2 substrate protein remaining %” value at IKZF2 (setting [2]) is “B (80%< substrate protein remaining %≤ 100%)”. In addition, the “IKZF3 substrate protein remaining %” value at IKZF3 (setting [2]) is recorded as “B (80%< substrate protein remaining %≤ 100%)”. The “Wee1 substrate protein remaining %” value at WEE1 (setting [2]) was “A (0% ≤ substrate protein remaining % ≤ 80%)”. Also, in the test on GSPT1 (setting [2]), the “GSPT1 substrate protein remaining %” value is on record as “B (80%< substrate protein remaining %≤ 100%)”. In addition, in test [1], the inhibition (commonly the percentage by which the read-out fell short of the control) at 0.5 µM lay in the range of 53 to 60% and the inhibition at 2 µM was in the range of 80 to 100%.
`Cc1cscc1N1CCN(Cc2cccc3c2CN(C2CCC(=O)NC2=O)C3=S)CC1` (stereo not shown) [GT-08306, 3-(4-((4-(4-methylthiophen-3-yl)piperazin-1-yl)methyl)-1-thioxoisoindolin-2-yl)piperidine-2,6-dione]: on CK1α (setting [3]), the “CK1α substrate protein remaining %” value was “B (80%< substrate protein remaining %≤ 100%)”. Further, on IKZF1 (setting [3]), the “IKZF 1 substrate protein remaining %” value is “B (80%< substrate protein remaining %≤ 100%)”. Moreover, the “IKZF2 substrate protein remaining %” value at IKZF2 (setting [3]) was “B (80%< substrate protein remaining %≤ 100%)”. For the same compound, the “IKZF3 substrate protein remaining %” value at IKZF3 (setting [3]) is reported as “B (80%< substrate protein remaining %≤ 100%)”. The “Wee1 substrate protein remaining %” value on WEE1 (setting [3]) is on record as “A (0% ≤ substrate protein remaining % ≤ 80%)”. For the same compound, the “GSPT1 substrate protein remaining %” value with GSPT1 (setting [3]) was “B (80%< substrate protein remaining %≤ 100%)”. In test [1], the inhibition at 0.5 µM was in the range of 53 to 60% and the inhibition at 2 µM was 80 to 100%.
With `Cc1ccc(Cl)cc1N1CCN(Cc2cccc3c2CN(C2CCC(=O)NC2=O)C3=S)CC1` (stereo not shown) [GT-08505, 3-(4-((4-(5-chloro-2-methylphenyl)piperazin-1-yl)methyl)-1-thioxoisoindolin-2-yl)piperidine-2,6-dione], the “CK1α substrate protein remaining %” value at CK1α (setting [2]) is reported as “B (80%< substrate protein remaining %≤ 100%)”. For the same compound, on IKZF1 (setting [2]), the “IKZF 1 substrate protein remaining %” value is recorded as “B (80%< substrate protein remaining %≤ 100%)”. Moreover, the “IKZF2 substrate protein remaining %” value at IKZF2 (setting [2]) is recorded as “B (80%< substrate protein remaining %≤ 100%)”. At IKZF3 (setting [2]), the “IKZF3 substrate protein remaining %” value is given as “A (0% ≤ substrate protein remaining % ≤ 80%)”. Moreover, the “Wee1 substrate protein remaining %” value at WEE1 (setting [2]) is “A (0% ≤ substrate protein remaining % ≤ 80%)”. Further, in the test with GSPT1 (setting [2]), the “GSPT1 substrate protein remaining %” value was “B (80%< substrate protein remaining %≤ 100%)”. Also, in test [1], the inhibition at 0.5 µM is 40 to 53% and the inhibition at 2 µM lay within 60 to 80%.
Take `Cc1nc(C2=CCN(Cc3cccc4c3CN(C3CCC(=O)NC3=O)C4=S)CC2)c2c(-c3ccccc3)csc2n1` (stereo not shown) [GT-08958, 3-(4-((4-(2-methyl-5-phenylthieno[2,3-d]pyrimidin-4-yl)-3,6-dihydropyridin-1(2H)-yl)methyl)-1-thioxoisoindolin-2-yl)piperidine-2,6-dione]: the “CK1α substrate protein remaining %” value at CK1α (setting [3]) is recorded as “B (80%< substrate protein remaining %≤ 100%)”. On IKZF1 (setting [3]), the “IKZF 1 substrate protein remaining %” value is reported as “B (80%< substrate protein remaining %≤ 100%)”. The “IKZF2 substrate protein remaining %” value on IKZF2 (setting [3]) is listed as “B (80%< substrate protein remaining %≤ 100%)”. Moreover, the “IKZF3 substrate protein remaining %” value on IKZF3 (setting [3]) was “B (80%< substrate protein remaining %≤ 100%)”. The “Wee1 substrate protein remaining %” value at WEE1 (setting [3]) is recorded as “A (0% ≤ substrate protein remaining % ≤ 80%)”. In addition, in the test with GSPT1 (setting [3]), the “GSPT1 substrate protein remaining %” value is listed as “B (80%< substrate protein remaining %≤ 100%)”. For the same compound, in test [1], the inhibition at 0.5 µM was in the range of 60 to 80% and the inhibition at 2 µM was in the range of 80 to 100%.
`Cc1nc(C2=CCN(Cc3ccc4c(c3)CN(C3CCC(=O)NC3=O)C4=S)CC2)c2c(-c3ccccc3)csc2n1` (stereo not shown) [GT-09321, 3-(5-((4-(2-methyl-5-phenylthieno[2,3-d]pyrimidin-4-yl)-3,6-dihydropyridin-1(2H)-yl)methyl)-1-thioxoisoindolin-2-yl)piperidine-2,6-dione]: the “CK1α substrate protein remaining %” value at CK1α (setting [3]) is “B (80%< substrate protein remaining %≤ 100%)”. At IKZF1 (setting [3]), the “IKZF 1 substrate protein remaining %” value is recorded as “B (80%< substrate protein remaining %≤ 100%)”. Besides, the “IKZF2 substrate protein remaining %” value at IKZF2 (setting [3]) is recorded as “B (80%< substrate protein remaining %≤ 100%)”. Also, the “IKZF3 substrate protein remaining %” value on IKZF3 (setting [3]) is given as “B (80%< substrate protein remaining %≤ 100%)”. Further, at WEE1 (setting [3]), the “Wee1 substrate protein remaining %” value is reported as “A (0% ≤ substrate protein remaining % ≤ 80%)”. The “GSPT1 substrate protein remaining %” value in the test with GSPT1 (setting [3]) is listed as “A (0% ≤ substrate protein remaining % ≤ 80%)”. In test [1], the inhibition at 0.5 µM is 53 to 60% and the inhibition at 2 µM lay in the range of 80 to 100%.
With `O=C1CCC(N2Cc3c(CN4CCN(c5nc(N6CCOCC6)nc6c5SCC6)CC4)cccc3C2=S)C(=O)N1` (stereo not shown) [GT-08968, 3-(4-((4-(2-morpholino-6,7-dihydrothieno[3,2-d]pyrimidin-4-yl)piperazin-1-yl)methyl)-1-thioxoisoindolin-2-yl)piperidine-2,6-dione], the “CK1α substrate protein remaining %” value at CK1α (setting [3]) is reported as “B (80%< substrate protein remaining %≤ 100%)”. In addition, the “IKZF 1 substrate protein remaining %” value at IKZF1 (setting [3]) is reported as “B (80%< substrate protein remaining %≤ 100%)”. Moreover, the “IKZF2 substrate protein remaining %” value at IKZF2 (setting [3]) is “B (80%< substrate protein remaining %≤ 100%)”. The “IKZF3 substrate protein remaining %” value on IKZF3 (setting [3]) is given as “B (80%< substrate protein remaining %≤ 100%)”. On WEE1 (setting [3]), the “Wee1 substrate protein remaining %” value is “A (0% ≤ substrate protein remaining % ≤ 80%)”. Besides, the “GSPT1 substrate protein remaining %” value in the test with GSPT1 (setting [3]) was “B (80%< substrate protein remaining %≤ 100%)”. Besides, in test [1], the inhibition at 0.5 µM fell in the range of 60 to 80% and the inhibition at 2 µM was in the range of 80 to 100%.
Regarding `CC1(C)CCC(CN2C3CC2CN(Cc2ccc4c(c2)CN(C2CCC(=O)NC2=O)C4=S)C3)=C(c2ccc(Cl)cc2)C1` (stereo not shown) [GT-08161, 3-(5-((6-((4'-chloro-5,5-dimethyl-3,4,5,6-tetrahydro-[1,1'-biphenyl]-2-yl)methyl)-3,6-diazabicyclo[3.1.1]heptan-3-yl)methyl)-1-thioxoisoindolin-2-yl)piperidine-2,6-dione], the “CK1α substrate protein remaining %” value on CK1α (setting [3]) is listed as “B (80%< substrate protein remaining %≤ 100%)”. Also, at IKZF1 (setting [3]), the “IKZF 1 substrate protein remaining %” value is “B (80%< substrate protein remaining %≤ 100%)”. The “IKZF2 substrate protein remaining %” value at IKZF2 (setting [3]) is “A (0% ≤ substrate protein remaining % ≤ 80%)”. The “IKZF3 substrate protein remaining %” value at IKZF3 (setting [3]) is given as “A (0% ≤ substrate protein remaining % ≤ 80%)”. Besides, the “Wee1 substrate protein remaining %” value on WEE1 (setting [3]) is “A (0% ≤ substrate protein remaining % ≤ 80%)”. In addition, the “GSPT1 substrate protein remaining %” value with GSPT1 (setting [3]) is “A (0% ≤ substrate protein remaining % ≤ 80%)”. Further, in test [1], the inhibition at 0.5 µM fell in the range of 40 to 53% and the inhibition at 2 µM fell in the range of 80 to 100%.
Take `O=C1CCC(N2Cc3c(CN4CCN(c5ncnc6sc7c(c56)CCCC7)CC4)cccc3C2=S)C(=O)N1` (stereo not shown) [GT-08924, 3-(4-((4-(5,6,7,8-tetrahydrobenzo[4,5]thieno[2,3-d]pyrimidin-4-yl)piperazin-1-yl)methyl)-1-thioxoisoindolin-2-yl)piperidine-2,6-dione]: on CK1α (setting [3]), the “CK1α substrate protein remaining %” value was “B (80%< substrate protein remaining %≤ 100%)”. Also, the “IKZF 1 substrate protein remaining %” value on IKZF1 (setting [3]) is on record as “B (80%< substrate protein remaining %≤ 100%)”. Also, at IKZF2 (setting [3]), the “IKZF2 substrate protein remaining %” value was “A (0% ≤ substrate protein remaining % ≤ 80%)”. Besides, the “IKZF3 substrate protein remaining %” value at IKZF3 (setting [3]) is “B (80%< substrate protein remaining %≤ 100%)”. In addition, the “Wee1 substrate protein remaining %” value at WEE1 (setting [3]) was “A (0% ≤ substrate protein remaining % ≤ 80%)”. The “GSPT1 substrate protein remaining %” value with GSPT1 (setting [3]) is given as “B (80%< substrate protein remaining %≤ 100%)”. In test [1], the inhibition at 0.5 µM is 40 to 53% and the inhibition at 2 µM is 80 to 100%.
